Test results taken from patent publication US8383581B2, “Short-chain peptides as parathyroid hormone (PTH) receptor agonist” (Cadila Healthcare Limited, priority 2009, dated 2013).
Where a SMILES comes first, the peptide text is derived from it. [ ]: non-standard residue; d: D form. ξ: configuration not given here. ξBip(2'-Et-4'-OMe) = CCc1cc(OC)ccc1-c1ccc(CC(N)C(=O)O)cc1; Arg(NO2) = N=C(NCCC[C@H](N)C(=O)O)N[N+](=O)[O-]; ξαMePhe(2,6-F2) = CC(N)(Cc1c(F)cccc1F)C(=O)O; ξαMe(hhPhe) = CC(N)(CCCc1ccccc1)C(=O)O; ξαMePhe(2-F) = CC(N)(Cc1ccccc1F)C(=O)O; hArg = N=C(N)NCCCC[C@H](N)C(=O)O; hCit = NC(=O)NCCCC[C@H](N)C(=O)O; Cit = NC(=O)NCCC[C@H](N)C(=O)O; ξhhPhe = NC(CCCc1ccccc1)C(=O)O; ξαMeF = CC(N)(Cc1ccccc1)C(=O)O; NMeV = CN[C@H](C(=O)O)C(C)C; ξαMeNle = CCCCC(C)(N)C(=O)O; Nle = CCCC[C@H](N)C(=O)O; Orn = NCCC[C@H](N)C(=O)O; ξαMeP = CC1(C(=O)O)CCCN1; Ac5c = NC1(C(=O)O)CCCC1; Ac3c = NC1(C(=O)O)CC1; Aib = CC(C)(N)C(=O)O

Tested on: ovariectomised (OVX) rats
Test: In vivo anti-osteoporosis activity testing in OVX rat model (serum calcium, phosphate, bone parameters)
Parameters: species or system Female Wistar Rats
Conditions: po
Text: c) In Vivo Anti-Osteoporosis Activity Testing in OVX Rat Model: The ovariectomised (OVX) rats were used to study anti-osteoporosis activity of test compounds (short-chain peptides) in vivo. The OVX rats develop osteopenia due to ovarian hormone deficiency. Osteopenia can be detected as early as 14 days post OVX, increase for the next 100 days and then stabilised (Wronski T. J., et al., Calcif. Tissue Int., 43(3), 1988, 179-183). Detailed Study Protocol to Evaluate the Effects of Anabolic Therapy on Bone Markers and Histomorphometry in OVX Animals: 10 to 11 weeks old Female Wistar Rats (150-200 g) were used. The animals were kept in individually ventilated cages in a room with controlled temperature (23°±3° C.), lighting (12:12 h light-dark cycle) and relative humidity (55±10%). Animals had free access to standard rat chow and water. Protocol for use of animals for conducting this study has been reviewed and approved by Institutional Animal Ethics Committee (IAEC). The animals were marked with picric acid for identification and acclimatized to experimental room conditions for 2 days prior to initiation of the study. For the induction of osteoporosis, rats were bilaterally ovariectomised under anesthesia. For Ovariectomy, Incision was made on dorsa-lateral side near lumbar region of animal. After that, ovary was excised and the veins were tied with ligature before removing ovary to prevent blood loss. Then incision was sutured back with ligature. After Bilateral ovariectomy, animals were allowed to rest for 4 weeks. They were then divided into different groups (n=9) based on their body weight. The groups consisted of a no treatment control, PTH as standard and one or two groups of test compounds (short-chain peptides). The treatment was given for the duration of 6 weeks. At the last day of treatment animals were kept overnight in metabolic cages under fasting for the collection of Urine. Next day, blood was collected after 24 hours of last dosing and animals were sacrificed. Changes in biochemical parameters and bone turnover parameters (Increase in serum Calcium and decrease in Phosphate levels, Acid Phosphatase and TRAP) were evaluated in the urine and serum. After sacrificing, intact femur and tibial bones are removed and cleaned from adherent tissues, muscles and tendons; weighed and collected in formal saline (10% formaldehyde solution). Lumbar vertebra (L5) was excised, carefully cleaned and collected in formal saline. Femur, tibia and Lumbar vertebra-5 (L5) were later processed for histomorphometric evaluation (Zhang L., et al., Tohoku J Exp Med., 1998, 186(2), 131-41; Tanizawa T., et al., Toxicol Lett., 1998, 102, 399-403).

## CCCC[C@H](NC(=O)[C@H](CC(C)C)NC(=O)[C@H](CCC(N)=O)NC(=O)[C@@H](NC(=O)[C@H](CCC(=O)O)NC(=O)C(C)(C)NC(=O)[C@@H](NC(=O)C1(N)CCCC1)C(C)C)[C@@H](C)CC)C(=O)N[C@@H](Cc1c[nH]cn1)C(=O)N[C@@H](CCC(N)=O)C(=O)N[C@@H](CCCCNC(N)=O)C(=O)N[C@@H](C)C(=O)N[C@@H](CCCNC(=N)N)C(=O)NC(Cc1ccc(-c2ccc(OC)cc2CC)cc1)C(=O)NC(CCCc1ccccc1)C(N)=O (stereo partly drawn) [Seq. ID. 779] (H-[Ac5c]V[Aib]EIQL[Nle]HQ[hCit]AR[ξBip(2'-Et-4'-OMe)][ξhhPhe]-NH2)
1 mg/kg
  % decrease in serum PO4 Levels (mg/dl) vs control: 56%
  % increase in serum Ca^2+ Levels (mg/dl) vs control: 67%

## CCCC[C@H](NC(=O)C(C)(Cc1c(F)cccc1F)NC(=O)[C@H](CCC(N)=O)NC(=O)[C@@H](NC(=O)[C@H](CCC(=O)O)NC(=O)C(C)(C)NC(=O)[C@@H](NC(=O)C1(N)CCCC1)C(C)C)[C@@H](C)CC)C(=O)N[C@@H](Cc1c[nH]cn1)C(=O)N[C@@H](CCC(N)=O)C(=O)NC(C)(C)C(=O)N[C@@H](C)C(=O)N[C@@H](CCCNC(=N)N[N+](=O)[O-])C(=O)NC(C)(Cc1c(F)cccc1F)C(N)=O (stereo partly drawn) [Seq. ID. 599] (H-[Ac5c]V[Aib]EIQ[ξαMePhe(2,6-F2)][Nle]HQ[Aib]A[Arg(NO2)][ξαMePhe(2,6-F2)]-NH2)
0.03 mg/kg
  % decrease in serum PO4 Levels (mg/dl) vs control: 90%
  % increase in serum Ca^2+ Levels (mg/dl) vs control: 110%

## CCCC[C@H](NC(=O)C(C)(Cc1ccccc1F)NC(=O)[C@H](CCC(N)=O)NC(=O)[C@@H](NC(=O)[C@H](CCC(=O)O)NC(=O)C(C)(C)NC(=O)[C@@H](NC(=O)C1(N)CCCC1)C(C)C)[C@@H](C)CC)C(=O)N[C@@H](Cc1c[nH]cn1)C(=O)N[C@@H](CCC(N)=O)C(=O)NC(C)(C)C(=O)NC(C)(C)C(=O)NC(C)(C)C(=O)NC(C)(Cc1ccccc1F)C(N)=O (stereo partly drawn) [Seq. ID. 556] (H-[Ac5c]V[Aib]EIQ[ξαMePhe(2-F)][Nle]HQ[Aib][Aib][Aib][ξαMePhe(2-F)]-NH2)
5 mg/kg
  % decrease in serum PO4 Levels (mg/dl) vs control: 84%
  % increase in serum Ca^2+ Levels (mg/dl) vs control: 77%

## CCCC[C@H](NC(=O)C(C)(Cc1c(F)cccc1F)NC(=O)[C@H](CCC(N)=O)NC(=O)[C@@H](NC(=O)[C@H](CCC(=O)O)NC(=O)C(C)(C)NC(=O)[C@@H](NC(=O)C1(N)CCCC1)C(C)C)[C@@H](C)CC)C(=O)N[C@@H](Cc1c[nH]cn1)C(=O)N[C@@H](CCC(N)=O)C(=O)N[C@@H](CCCN)C(=O)N[C@@H](C)C(=O)NC(C)(Cc1c(F)cccc1F)C(=O)NC(Cc1ccc(-c2ccc(OC)cc2CC)cc1)C(=O)NC(CCCc1ccccc1)C(N)=O (stereo partly drawn) [Seq. ID. 833] (H-[Ac5c]V[Aib]EIQ[ξαMePhe(2,6-F2)][Nle]HQ[Orn]A[ξαMePhe(2,6-F2)][ξBip(2'-Et-4'-OMe)][ξhhPhe]-NH2)
0.05 mg/kg
  % decrease in serum PO4 Levels (mg/dl) vs control: 78%
  % increase in serum Ca^2+ Levels (mg/dl) vs control: 86%

## CCCC[C@H](NC(=O)[C@H](CC(C)C)NC(=O)[C@H](CCC(N)=O)NC(=O)[C@@H](NC(=O)[C@H](CCC(=O)O)NC(=O)C(C)(C)NC(=O)[C@@H](NC(=O)C1(N)CCCC1)C(C)C)[C@@H](C)CC)C(=O)N[C@@H](Cc1c[nH]cn1)C(=O)N[C@@H](CCC(N)=O)C(=O)NC(C)(Cc1c(F)cccc1F)C(=O)N[C@@H](C)C(=O)NC(C)(Cc1c(F)cccc1F)C(=O)NC(Cc1ccc(-c2ccc(OC)cc2CC)cc1)C(=O)NC(CCCc1ccccc1)C(N)=O (stereo partly drawn) [Seq. ID. 801] (H-[Ac5c]V[Aib]EIQL[Nle]HQ[ξαMePhe(2,6-F2)]A[ξαMePhe(2,6-F2)][ξBip(2'-Et-4'-OMe)][ξhhPhe]-NH2)
3 mg/kg
  % decrease in serum PO4 Levels (mg/dl) vs control: 65%
  % increase in serum Ca^2+ Levels (mg/dl) vs control: 59%

## CCCC[C@H](NC(=O)C(C)(Cc1ccccc1F)NC(=O)[C@H](CCC(N)=O)NC(=O)[C@@H](NC(=O)[C@H](CCC(=O)O)NC(=O)C1(NC(=O)[C@@H](NC(=O)C2(N)CCCC2)C(C)C)CCCC1)[C@@H](C)CC)C(=O)N[C@@H](Cc1c[nH]cn1)C(=O)N[C@@H](CCC(N)=O)C(=O)N[C@@H](CCCCNC(=N)N)C(=O)N[C@@H](C)C(=O)N[C@@H](CCCCN)C(=O)NC(C)(Cc1c(F)cccc1F)C(N)=O (stereo partly drawn) [Seq. ID. 99] (H-[Ac5c]V[Ac5c]EIQ[ξαMePhe(2-F)][Nle]HQ[hArg]AK[ξαMePhe(2,6-F2)]-NH2)
2 mg/kg
  % decrease in serum PO4 Levels (mg/dl) vs control: 89%
  % increase in serum Ca^2+ Levels (mg/dl) vs control: 99%

## CCCCC(C)(NC(=O)[C@H](CC(C)C)NC(=O)[C@H](CCC(N)=O)NC(=O)[C@@H](NC(=O)[C@H](CCC(=O)O)NC(=O)C(C)(C)NC(=O)[C@@H](NC(=O)C1(NC(=O)[C@@H](NC)C(C)C)CCCC1)C(C)C)[C@@H](C)CC)C(=O)N[C@@H](Cc1c[nH]cn1)C(=O)N[C@@H](CCC(N)=O)C(=O)N[C@@H](CCCCNC(=N)N)C(=O)N[C@@H](C)C(=O)N[C@@H](CCCCNC(=N)N)C(=O)NC(C)(Cc1ccccc1F)C(=O)NC(C)(CCCc1ccccc1)C(N)=O (stereo partly drawn) [Seq. ID. 941] (H-[NMeV][Ac5c]V[Aib]EIQL[ξαMeNle]HQ[hArg]A[hArg][ξαMePhe(2-F)][ξαMe(hhPhe)]-NH2)
0.9 mg/kg
  % decrease in serum PO4 Levels (mg/dl) vs control: 95%
  % increase in serum Ca^2+ Levels (mg/dl) vs control: 99%

## CC[C@H](C)[C@H](NC(=O)[C@H](CCC(=O)O)NC(=O)C(C)(C)NC(=O)[C@@H](NC(=O)C1(N)CC1)C(C)C)C(=O)N[C@@H](CCC(N)=O)C(=O)N[C@@H](CC(C)C)C(=O)N[C@@H](CCSC)C(=O)N[C@@H](Cc1c[nH]cn1)C(=O)N[C@@H](CCC(N)=O)C(=O)N[C@@H](CCCCNC(=N)N)C(=O)N1CCCC1(C)C(=O)N[C@@H](CCCCN)C(=O)NC(C)(Cc1ccccc1)C(N)=O (stereo partly drawn) [Seq. ID. 12] (H-[Ac3c]V[Aib]EIQLMHQ[hArg][ξαMeP]K[ξαMeF]-NH2)
5 mg/kg
  % decrease in serum PO4 Levels (mg/dl) vs control: 102%
  % increase in serum Ca^2+ Levels (mg/dl) vs control: 118%

## CCCC[C@H](NC(=O)[C@H](CC(C)C)NC(=O)[C@H](CCC(N)=O)NC(=O)[C@@H](NC(=O)[C@H](CCC(=O)O)NC(=O)C(C)(C)NC(=O)[C@@H](NC(=O)C1(N)CC1)C(C)C)[C@@H](C)CC)C(=O)N[C@@H](Cc1c[nH]cn1)C(=O)N[C@@H](CCC(N)=O)C(=O)N[C@@H](CCCCNC(=N)N)C(=O)N[C@@H](C)C(=O)N[C@@H](CCCCN)C(=O)NC(Cc1ccc(-c2ccc(OC)cc2CC)cc1)C(N)=O (stereo partly drawn) [Seq. ID. 649] (H-[Ac3c]V[Aib]EIQL[Nle]HQ[hArg]AK[ξBip(2'-Et-4'-OMe)]-NH2)
2 mg/kg
  % decrease in serum PO4 Levels (mg/dl) vs control: 82%
  % increase in serum Ca^2+ Levels (mg/dl) vs control: 86%

## CCCC[C@H](NC(=O)C(C)(Cc1c(F)cccc1F)NC(=O)[C@H](CCC(N)=O)NC(=O)[C@@H](NC(=O)[C@H](CCC(=O)O)NC(=O)C(C)(C)NC(=O)[C@@H](NC(=O)C(C)(C)N)C(C)C)[C@@H](C)CC)C(=O)N[C@@H](Cc1c[nH]cn1)C(=O)N[C@@H](CCC(N)=O)C(=O)N[C@@H](CCCN)C(=O)N[C@@H](C)C(=O)NC(C)(Cc1c(F)cccc1F)C(=O)NC(C)(Cc1ccccc1F)C(N)=O (stereo partly drawn) [Seq. ID. 317] (H-[Aib]V[Aib]EIQ[ξαMePhe(2,6-F2)][Nle]HQ[Orn]A[ξαMePhe(2,6-F2)][ξαMePhe(2-F)]-NH2)
3 mg/kg
  % decrease in serum PO4 Levels (mg/dl) vs control: 93%
  % increase in serum Ca^2+ Levels (mg/dl) vs control: 102%

## CCCC[C@H](NC(=O)[C@H](CC(C)C)NC(=O)[C@H](CCC(N)=O)NC(=O)[C@@H](NC(=O)[C@H](CCC(=O)O)NC(=O)C(C)(C)NC(=O)[C@@H](NC(=O)C(C)(C)N)C(C)C)[C@@H](C)CC)C(=O)N[C@@H](Cc1c[nH]cn1)C(=O)N[C@@H](CCC(N)=O)C(=O)N[C@@H](CCCCNC(=N)N)C(=O)NC(C)(C)C(=O)NC(C)(C)C(=O)NC(Cc1ccc(-c2ccc(OC)cc2CC)cc1)C(=O)NC(CCCc1ccccc1)C(N)=O (stereo partly drawn) [Seq. ID. 742] (H-[Aib]V[Aib]EIQL[Nle]HQ[hArg][Aib][Aib][ξBip(2'-Et-4'-OMe)][ξhhPhe]-NH2)
0.1 mg/kg
  % decrease in serum PO4 Levels (mg/dl) vs control: 92%
  % increase in serum Ca^2+ Levels (mg/dl) vs control: 89%

## CCCC[C@H](NC(=O)C(C)(Cc1c(F)cccc1F)NC(=O)[C@H](CCC(N)=O)NC(=O)[C@@H](NC(=O)[C@H](CCC(=O)O)NC(=O)C(C)(C)NC(=O)[C@@H](NC(=O)C(C)(C)N)C(C)C)[C@@H](C)CC)C(=O)N[C@@H](Cc1c[nH]cn1)C(=O)N[C@@H](CCC(N)=O)C(=O)N[C@@H](CCCN)C(=O)N[C@@H](C)C(=O)N[C@@H](CCCNC(N)=O)C(=O)NC(C)(Cc1c(F)cccc1F)C(N)=O (stereo partly drawn) [Seq. ID. 293] (H-[Aib]V[Aib]EIQ[ξαMePhe(2,6-F2)][Nle]HQ[Orn]A[Cit][ξαMePhe(2,6-F2)]-NH2)
5 mg/kg
  % decrease in serum PO4 Levels (mg/dl) vs control: 75%
  % increase in serum Ca^2+ Levels (mg/dl) vs control: 67%
